Data on 32 molecules can be found in patent US9399635B2, “Pyrazole derivative” (GREEN TECH CO., LTD., priority 2011, dated 2016).

Each structure is given as a SMILES string.

As a reminder, the melting point is the temperature, or range, at which the solid turns liquid. Turning to `C(=C\c1cc(/C=C/c2ccc3[nH]ccc3c2)[nH]n1)/c1ccc(OCc2ccccn2)cc1` [Example 4, 3-[(1E)-2-(1H-indol-5-yl)ethenyl]-5-[(1E)-2-[4-(2-pyridylmethoxy)phenyl]ethenyl]-1H-pyrazole], the melting point was 95 to 102 °C. `COc1cc(/C=C/c2cc(/C=C/c3ccc4[nH]ccc4c3)[nH]n2)ccc1OCc1ccccn1` [Example 5, 3-[(1E)-2-(1H-indol-5-yl)ethenyl]-5-[(1E)-2-[3-methoxy-4-(2-pyridylmethoxy)phenyl]ethenyl]-1H-pyrazole] gave a melting point of 96 to 101 °C. For `COc1ccc(/C=C/c2cc(/C=C/c3ccc4[nH]ccc4c3)[nH]n2)cc1OCc1ccccn1` [Example 6, 3-[(1E)-2-(1H-indol-5-yl)ethenyl]-5-[(1E)-2-[4-methoxy-3-(2-pyridylmethoxy)phenyl]ethenyl]-1H-pyrazole], the melting point is 109 to 118 °C. The value for `C(=C\c1cc(/C=C/c2ccc3[nH]ccc3c2)[nH]n1)/c1cccc(OCc2ccccn2)c1` [Example 7, 3-[(1E)-2-(1H-indol-5-yl)ethenyl]-5-[(1E)-2-[3-(2-pyridylmethoxy)phenyl]ethenyl]-1H-pyrazole] was 183 to 186 °C; that for `C(=C\c1cc(/C=C/c2c[nH]c3ccccc23)[nH]n1)/c1ccc(OCc2ccccn2)cc1` [Example 10, 3-[(1E)-2-(1H-indol-3-yl)ethenyl]-5-[(1E)-2-[4-(2-pyridylmethoxy)phenyl]ethenyl]-1H-pyrazole] was 196 to 199 °C; that for `COc1cc(/C=C/c2cc(/C=C/c3c[nH]c4ccccc34)[nH]n2)ccc1OCc1ccccn1` [Example 11, 3-[(1E)-2-(1H-indol-3-yl)ethenyl]-5-[(1E)-2-[3-methoxy-4-(2-pyridylmethoxy)phenyl]ethenyl]-1H-pyrazole] was 120 to 130 °C.

With `COc1ccc(/C=C/c2cc(/C=C/c3c[nH]c4ccccc34)[nH]n2)cc1OCc1ccccn1` [Example 12, 3-[(1E)-2-(1H-indol-3-yl)ethenyl]-5-[(1E)-2-[4-methoxy-3-(2-pyridylmethoxy)phenyl]ethenyl]-1H-pyrazole], the melting point lay in the range of 232 to 243 °C. The molecule `C(=C\c1cc(/C=C/c2c[nH]c3ccccc23)[nH]n1)/c1cccc(OCc2ccccn2)c1` [Example 13, 3-[(1E)-2-(1H-indol-3-yl)ethenyl]-5-[(1E)-2-[3-(2-pyridylmethoxy)phenyl]ethenyl]-1H-pyrazole] registered a melting point of 198 to 201 °C. The molecule `C(=C\c1cc(/C=C/c2ccc3cc[nH]c3c2)[nH]n1)/c1ccc(OCc2ccccn2)cc1` [Example 16, 3-[(1E)-2-(1H-indol-6-yl)ethenyl]-5-[(1E)-2-[4-(2-pyridylmethoxy)phenyl]ethenyl]-1H-pyrazole] showed a melting point of 211 to 214 °C. Under `COc1cc(/C=C/c2cc(/C=C/c3ccc4cc[nH]c4c3)[nH]n2)ccc1OCc1ccccn1` [Example 17, 3-[(1E)-2-(1H-indol-6-yl)ethenyl]-5-[(1E)-2-[3-methoxy-4-(2-pyridylmethoxy)phenyl]ethenyl]-1H-pyrazole] stands 236 to 243 °C; under `COc1ccc(/C=C/c2cc(/C=C/c3ccc4cc[nH]c4c3)[nH]n2)cc1OCc1ccccn1` [Example 18, 3-[(1E)-2-(1H-indol-6-yl)ethenyl]-5-[(1E)-2-[4-methoxy-3-(2-pyridylmethoxy)phenyl]ethenyl]-1H-pyrazole], 110 to 117 °C; under `C(=C\c1cc(/C=C/c2ccc3cc[nH]c3c2)[nH]n1)/c1cccc(OCc2ccccn2)c1` [Example 19, 3-[(1E)-2-(1H-indol-6-yl)ethenyl]-5-[(1E)-2-[3-(2-pyridylmethoxy)phenyl]ethenyl]-1H-pyrazole], 193 to 195 °C.

`COc1c(/C=C/c2cc(/C=C/c3ccc4cc[nH]c4c3)[nH]n2)cccc1OCc1ccccn1` [Example 22, 3-[(1E)-2-(1H-indol-6-yl)ethenyl]-5-[(1E)-2-[2-methoxy-3-(2-pyridylmethoxy)phenyl]ethenyl]-1H -pyrazole] gave a melting point of 109 to 114 °C.

`COc1cc(/C=C/c2cc(/C=C/c3ccc4cc[nH]c4c3)[nH]n2)cc(OCc2ccccn2)c1` [Example 25, 3-[(1E)-2-(1H-indol-6-yl)ethenyl]-5-[(1E)-2-[3-methoxy-5-(2-pyridylmethoxy)phenyl]ethenyl]-1H-pyrazole] showed a melting point of 88 to 93 °C. Take `COc1cc(OCCN2CCCCC2)ccc1/C=C/c1cc(/C=C/c2ccc3cc[nH]c3c2)[nH]n1` [Example 26, 3-[(1E)-2-(1H-indol-6-yl)ethenyl]-5-[(1E)-2-[2-methoxy-4-(2-piperidinoethoxy)phenyl]ethenyl]-1H-pyrazole]: the melting point lay in the range of 150 to 155 °C.

Regarding `COc1cc(OCCN2CCN(C)CC2)ccc1/C=C/c1cc(/C=C/c2ccc3cc[nH]c3c2)[nH]n1` [Example 28, 3-[(1E)-2-(1H-indol-6-yl)ethenyl]-5-[(1E)-2-[2-methoxy-4-[2-(4-methylpiperazino)ethoxy]phenyl]ethenyl]-1H-pyrazole], the melting point lay within 134 to 142 °C.

As for `COc1cc(O[C@@H]2O[C@H](CO)[C@@H](O)[C@H](O)[C@H]2O)ccc1/C=C/c1cc(/C=C/c2ccc3cc[nH]c3c2)[nH]n1` [Example 29, 3-[(1E)-2-(1H-indol-6-yl)ethenyl]-5-[(1E)-2-[4-[(β-D-glucopyranosyl)oxy]-2-methoxyphenyl]ethenyl]-1H-pyrazole], the melting point was 194 to 199 °C. On to `COc1cc(OCc2ccccn2)ccc1/C=C/c1cc(/C=C/c2ccc3[nH]nnc3c2)[nH]n1` [Example 30, 3-[(1E)-2-(1H-benzotriazol-5-yl)ethenyl]-5-[(1E)-2-[2-methoxy-4-(2-pyridylmethoxy)phenyl]ethenyl]-1H-pyrazole], for which the melting point was 113 to 120 °C. Consider `COc1cc(OCc2ccccn2)ccc1/C=C/c1cc(/C=C/c2ccc3nccnc3c2)[nH]n1` [Example 32, 3-[(1E)-2-[2-methoxy-4-(2-pyridylmethoxy)phenyl]ethenyl]-5-[(1E)-2-(quinoxalin-6-yl)ethenyl]-1H-pyrazole], for which the melting point was in the range of 205 to 213 °C. Molecule `COc1cc(OCc2ccccn2)ccc1/C=C/c1cc(/C=C/c2cc3ccccc3o2)[nH]n1` [Example 33, 3-[(1E)-2-(benzofuran-2-yl)ethenyl]-5-[(1E)-2-[2-methoxy-4-(2-pyridylmethoxy)phenyl]ethenyl]-1H-pyrazole] had a melting point of 199.4 to 200.9 °C. `COc1cc(OCc2ccccn2)ccc1/C=C/c1cc(/C=C/c2cc3ccccc3s2)[nH]n1` [Example 34, 3-[(1E)-2-(benzothiophen-2-yl)ethenyl]-5-[(1E)-2-[2-methoxy-4-(2-pyridylmethoxy)phenyl]ethenyl]-1H-pyrazole] yielded a melting point of 231.1 to 232.1 °C.

With `COc1cc(OCc2ccccn2)ccc1/C=C/c1cc(/C=C/c2c[nH]c3ccccc23)[nH]n1` [Example 38, 3-[(1E)-2-(1H-indol-3-yl)ethenyl]-5-[(1E)-2-[2-methoxy-4-(2-pyridylmethoxy)phenyl]ethenyl]-1H-pyrazole], the melting point is 112 to 116 °C. Molecule `COc1cc(OCc2ccccn2)ccc1/C=C/c1cc(/C=C/c2cccc3[nH]ccc23)[nH]n1` [Example 39, 3-[(1E)-2-(1H-indol-4-yl)ethenyl]-5-[(1E)-2-[2-methoxy-4-(2-pyridylmethoxy)phenyl]ethenyl]-1H-pyrazole] came in with a melting point of 108 to 113 °C. The value for `COc1cc(OCc2ccccn2)ccc1/C=C/c1cc(/C=C/c2ccc3[nH]ccc3c2)[nH]n1` [Example 40, 3-[(1E)-2-(1H-indol-5-yl)ethenyl]-5-[(1E)-2-[2-methoxy-4-(2-pyridylmethoxy)phenyl]ethenyl]-1H-pyrazole] was 98 to 104 °C.

Molecule `COc1cc(OCc2ccccn2)ccc1/C=C/c1cc(/C=C/c2cccc3cc[nH]c23)[nH]n1` [Example 41, 3-[(1E)-2-(1H-indol-7-yl)ethenyl]-5-[(1E)-2-[2-methoxy-4-(2-pyridylmethoxy)phenyl]ethenyl]-1H-pyrazole] gave a melting point of 99 to 110 °C.

Molecule `COc1cc(OCc2cccnc2)ccc1/C=C/c1cc(/C=C/c2c[nH]c3ccccc23)[nH]n1` [Example 42, 3-[(1E)-2-(1H-indol-3-yl)ethenyl]-5-[(1E)-2-[2-methoxy-4-(3-pyridylmethoxy)phenyl]ethenyl]-1H-pyrazole] displayed a melting point of 129 to 137 °C.

Molecule `COc1cc(OCc2ccncc2)ccc1/C=C/c1cc(/C=C/c2c[nH]c3ccccc23)[nH]n1` [Example 43, 3-[(1E)-2-(1H-indol-3-yl)ethenyl]-5-[(1E)-2-[2-methoxy-4-(4-pyridylmethoxy)phenyl]ethenyl]-1H-pyrazole] showed a melting point of 128 to 139 °C. Take `COc1cc(OCc2cccnc2)ccc1/C=C/c1cc(/C=C/c2ccc3[nH]ccc3c2)[nH]n1` [Example 44, 3-[(1E)-2-(1H-indol-5-yl)ethenyl]-5-[(1E)-2-[2-methoxy-4-(3-pyridylmethoxy)phenyl]ethenyl]-1H-pyrazole]: the melting point was 127 to 135 °C. The value for `COc1cc(OCc2ccncc2)ccc1/C=C/c1cc(/C=C/c2ccc3[nH]ccc3c2)[nH]n1` [Example 45, 3-[(1E)-2-(1H-indol-5-yl)ethenyl]-5-[(1E)-2-[2-methoxy-4-(4-pyridylmethoxy)phenyl]ethenyl]-1H-pyrazole] was 133 to 141 °C; that for `COc1cc(OCc2cccnc2)ccc1/C=C/c1cc(/C=C/c2ccc3cc[nH]c3c2)[nH]n1` [Example 46, 3-[(1E)-2-(1H-indol-6-yl)ethenyl]-5-[(1E)-2-[2-methoxy-4-(3-pyridylmethoxy)phenyl]ethenyl]-1H-pyrazole] was 90 to 95 °C. `COc1cc(OCc2ccncc2)ccc1/C=C/c1cc(/C=C/c2ccc3cc[nH]c3c2)[nH]n1` [Example 47, 3-[(1E)-2-(1H-indol-6-yl)ethenyl]-5-[(1E)-2-[2-methoxy-4-(4-pyridylmethoxy)phenyl]ethenyl]-1H-pyrazole] displayed a melting point of 103 to 118 °C.

With `COc1cc(OCc2cccnc2)ccc1/C=C/c1cc(/C=C/c2cccc3[nH]ccc23)[nH]n1` [Example 48, 3-[(1E)-2-(1H-indol-4-yl)ethenyl]-5-[(1E)-2-[2-methoxy-4-(3-pyridylmethoxy)phenyl]ethenyl]-1H-pyrazole], the melting point is 109 to 114 °C.
